Experiment [1] concerns the target T1, Alpha-ketoglutarate-dependent dioxygenase FTO (Homo sapiens, UniProt Q9C0B1).
The target of experiment [2] is T1, Alpha-ketoglutarate-dependent dioxygenase FTO. The source holds these as a separate data set.
A short description of another experiment: cells. Conditions: Homo sapiens, AML1.
The target of the next experiment is RNA demethylase ALKBH5 (Homo sapiens, UniProt Q6P6C2).
In experiment [3] the target is T2, N6-adenosine-methyltransferase catalytic subunit (Homo sapiens, UniProt Q86U44).
Another experiment concerns Huh-7. In words: cells. Conditions: Homo sapiens.
For experiment [4], the target named is T2, N6-adenosine-methyltransferase catalytic subunit. The source holds these as a separate data set.
The target is the same in experiment [5]. This is another data set of the same source.
For experiment [6], the target named is T1, Alpha-ketoglutarate-dependent dioxygenase FTO. The source holds these as a separate data set.
Experiment [7] concerns the target N(6)-adenosine-methyltransferase catalytic subunit METTL3 (Mus musculus, UniProt Q8C3P7).
For experiment [8], the target named is T3, METTL3/METTL14 (Homo sapiens, UniProt Q86U44).
Experiment [9] addresses T3, METTL3/METTL14. The source holds these as a separate data set.
Experiment [10] concerns the target T2, N6-adenosine-methyltransferase catalytic subunit. The source holds these as a separate data set.
A further experiment relates to ECa-109 cell line. Kind of experiment: cells. Conditions: Homo sapiens, ECa-109, 72 h.
For another experiment, the system named is HeLa. Kind of experiment: cells. Conditions: Homo sapiens, 24 h.
The next experiment relates to OCI-AML2. Kind of experiment: cells. Conditions: Homo sapiens.
The target in experiment [11] is YTH domain-containing protein 1 (Homo sapiens, UniProt Q96MU7).
The target of experiment [12] is T3, METTL3/METTL14. The source holds these as a separate data set.

Structures are written as SMILES. Structures can show the parent of a compound that is named as a salt. Bounds are passed on as bounds.

For orientation: IC50 means the midpoint of a concentration-inhibition curve. A low value points to greater potency in that assay. On to `O=C(O)c1ccccc1-c1c2cc(Cl)c(=O)cc-2oc2cc(O)c(Cl)cc12`, for which the half-inhibitory concentration (IC50) in [1] turned out to be 640 nM. Regarding `O=C(O)CC[C@@H](O)C(=O)O`, it took 133000 nM to reach half-maximal inhibition in experiment [2] (IC50). Broadly, the GI50 is the concentration at which growth is held to half of that of the control. Read a low GI50 as greater sensitivity of the cells. For the compound `Cc1noc(C)c1-c1cc(Cl)c(Nc2ccccc2C(=O)NO)c(Cl)c1`, halving of growth in “cells” (GI50) required 800 nM. As to `Cc1noc(C)c1-c1cc(Cl)c(Nc2ccccc2C(=O)O)c(Cl)c1`, the GI50 in the experiment “cells” amounted to 23000 nM.

At RNA demethylase ALKBH5, `CCCc1c(C)nc2c3ccccc3oc(=S)n12` yielded a half-maximal inhibitory concentration (IC50) of 10000 nM. For `Cn1ccc(-c2cn([C@@H]3O[C@H](COc4ccc5ccc(N6CCC6)nc5c4)[C@@H](O)[C@@H]3F)c3ncnc(N)c23)n1`, the half-inhibitory concentration (IC50) in experiment [3] was less than 1000 nM; in experiment [4], less than 10 nM; in experiment [5], less than 10 nM. The compound also had a GI50 with Huh-7 of less than 1000 nM.

Regarding `CCc1cc(N(C)CCOC)c2ccc(CCc3cncc(-n4cc(-c5ccn(C)n5)c5c(N)ncnc54)c3)cc2n1`, the IC50 is less than 1000 nM in [3], less than 10 nM in experiment [4] and less than 10 nM in experiment [5]. For the same compound, the GI50 in the experiment with Huh-7 is less than 1000 nM. As to `Nc1ncnc2c1ncn2[C@@H]1O[C@H](C(=O)NCCCNC(=O)c2ccccn2)[C@@H](O)[C@H]1O`, in experiment [6], the IC50 was 1500 nM. Compound `O=C(NCc1cn2cc(CNCC3CCCCC3)ccc2n1)c1cc(=O)n2ccccc2n1` returned a GI50 in the experiment with Huh-7 of 600 nM. The same compound yielded an IC50 in experiment [7] of 2810 nM. Turning to `COc1cc(-c2cn(Cc3cn4cc(CNCC5CCC5)ccc4n3)nn2)c2cn[nH]c2c1`, at METTL3/METTL14 [8], the IC50 is less than 5 nM. In the experiment on Huh-7, this compound yielded a GI50 of 160 nM.

In the case of `CC1(C)CCN(Cc2ccc3nc(Cn4cc(-c5cc(Br)cc6[nH]ncc56)nn4)cn3c2)CC1`, it took 8 nM to reach half-maximal inhibition at METTL3/METTL14 [8] (IC50). Turning to `Clc1cc(-c2cn(Cc3cn4cc(CNCC5CCC5)ccc4n3)nn2)c2cn[nH]c2c1`, the IC50 at METTL3/METTL14 [8] was less than 5 nM; at METTL3/METTL14 [9] it was 25 nM. The compound further yielded a 50% growth inhibitory concentration (GI50) in the experiment on Huh-7 of 210 nM. As to `O=C(O)c1ccccc1OCCc1cn(-c2ccc(-c3c(Cl)cccc3Cl)cc2)c2ccc(-c3ccc(F)cc3)cc12`, the IC50 in experiment [3] is 4000 nM; in [10], 4000 nM; in experiment [5] it was 2810 nM. The GI50 in the experiment on Huh-7 was 14600 nM. `CCOC(=O)c1ccccc1Nc1c(Cl)ccc(C)c1Cl` registered a half-inhibitory concentration (IC50) in experiment [4] of 7000 nM.

As for `COc1ncc(-c2ccc3sc(N)nc3c2)cn1`, in experiment [2], the concentration for half-maximal inhibition (IC50) stood at 3400 nM. In the experiment on ECa-109 cell line, `COc1c(C)cnc(Cn2cc(CNC(=O)c3c(F)c(F)c(F)c(F)c3F)nn2)c1C` came in with a 50% inhibitory concentration (IC50) of 830 nM. In turn, `CCS(=O)(=O)Nc1oc(-c2ccc(Cl)cc2)c(O)c1O` returned a half-inhibitory concentration (IC50) with HeLa of 8700 nM. For the compound `C(=N\NC1=NCCN1)/c1c2ccccc2c(/C=N/NC2=NCCN2)c2ccccc12` [BISANTRENE], the IC50 with OCI-AML2 amounted to 100 nM. Still for that read-out and setting: the figure for `Cc1c(-c2ccc(-c3ccccc3F)cc2)nc2ccc(F)cc2c1C(=O)O` [BREQUINAR] is 200 nM. In turn, `CC(=O)Oc1cccc2c1C(=O)c1c(OC(C)=O)cc(C(=O)O)cc1C2=O` [DIACEREIN] returned a 50% inhibitory concentration (IC50) in [6] of 1500 nM.

On to `O=c1c2ccccc2[se]n1-c1ccccc1` [EBSELEN], for which the 50% inhibitory concentration (IC50) in [11] was determined as 1600 nM.

For `Cc1ccc(Cl)c(Nc2ccccc2C(=O)O)c1Cl` [MECLOFENAMIC ACID], the midpoint of inhibition in experiment [4], the IC50, lay at 8000 nM. In turn, `N=C(N)c1ccc2cc(OC(=O)c3ccc(N=C(N)N)cc3)ccc2c1` [NAFAMOSTAT MESYLATE] showed an IC50 in experiment [6] of 13800 nM.

Compound `Nc1ncnc2c1ncn2[C@@H]1O[C@H](CSCC[C@H](N)C(=O)O)[C@@H](O)[C@H]1O` [S-ADENOSYLHOMOCYSTEINE] showed a half-maximal inhibitory concentration (IC50) on METTL3/METTL14 [12] of 520 nM. At METTL3/METTL14 [8], `O=C(O)[C@H]1O[C@@H](Oc2cc3oc(-c4ccc(O)cc4)cc(=O)c3c(O)c2O)[C@H](O)[C@@H](O)[C@@H]1O` [SCUTELLARIN] gave a concentration for half-maximal inhibition (IC50) of 19900 nM.

With `Nc1ncnc2c1ncn2[C@@H]1O[C@H](C[C@@H](N)CC[C@H](N)C(=O)O)[C@@H](O)[C@H]1O` [SINEFUNGIN], the 50% growth inhibitory concentration (GI50) in the experiment with Huh-7 stood at 24800 nM. At METTL3/METTL14 [12], it took 1300 nM to reach half-maximal inhibition (IC50).

(Values after ChEMBL document CHEMBL5584234, “Small molecules that regulate the N6-methyladenosine RNA modification as potential anti-cancer agents” (Eur J Med Chem, 2024).)
